Assay results from patent US9873674B2, “C-Rel inhibitors and uses thereof” (CORNELL UNIVERSITY, priority 2012, dated 2018).
pIC50: −log10 of the molar value.

What was measured:
IFN-γ = IFN-γ expression, intracellular cytokine staining and flow cytometry in CD4+ T cells; assay type: cell-based, mouse or human; settings: anti-CD3+anti-CD28 for 6 hours, % cytokine-expressing CD4+ T cells; data not shown
Procedure: (§1) Since autoimmune diseases are associated with elevated levels of inflammatory cytokines, it is important to identify Rel inhibitors that can inhibit the expression of inflammatory cytokines. As c-Rel regulates the expression of several cytokines including IL-2, IFN-γ, and TNF, assays for these cytokines can be used to assess the anti-inflammatory effects of Rel inhibitor analogs. To perform such experiments, mouse splenocytes or human PBMCs were stimulated with anti-CD3+anti-CD28 for 6 hours to induce cytokine expression. Compounds were added at the beginning of the culture. Cytokines (IL-2, IFN-γ, and TNF) were measured by intracellular cytokine staining and flow cytometry and the % of cytokine-expressing cells within CD4+ T cell population was enumerated. Compounds at varying doses were tested.

TNF = TNF expression, intracellular cytokine staining and flow cytometry in CD4+ T cells; assay type: cell-based, mouse or human; settings: anti-CD3+anti-CD28 for 6 hours, % cytokine-expressing CD4+ T cells; data not shown
Procedure: as §1

CD69 = assay: Expression of non-c-Rel target genes; assay type: cell-based, mouse or human
L363 cells = assay: Tumor cell cytotoxicity assay, multiple myeloma cell line L363; assay type: cell-based; settings: L363 cells (active classical pathway), 48 hours
Procedure: (§2) For example, the “classical” Rel pathway is crucial for the survival of L363 cell line, whereas the “alternative” pathway is important for the survival of RPMI8226 cells.
(§3) The MM and DLBCL cell lines were used to test for tumor cell cytotoxicity by the Rel inhibitor analogs. As an example, three MM cell lines were treated with a Rel inhibitor for 48 hours and cell numbers were enumerated as percentage of control group.

RPMI8226 cells = assay: Tumor cell cytotoxicity assay, multiple myeloma cell line RPMI8226; assay type: cell-based; settings: RPMI8226 cells (active alternative pathway), 48 hours
Procedure: as §2, §3

STZ-induced diabetes = assay: Streptozotocin (STZ)-induced diabetes model; assay type: in vivo; settings: 40 μg/mouse/day IP, day 0 to day 5, C57BL/6 mice; data not shown
Procedure: In yet another example, a Rel inhibitor compound was tested in Streptozotocin (STZ)-induced diabetes model. C57BL/6 (cRel+/+) mice were treated with low dose STZ for 5 days to induce diabetes, as indicated by glucose level above 300 mg/dl. c-Rel(−/−) mice were used as a control group. The Rel inhibitor (BA-001, 40 μg/mouse/day) or DMSO were injected IP to a group of five C57BL/6 mice for six consecutive days from day 0 to day 5. Glucose levels were determined at day 5, 7, 9, 12, 15, 19 and 27.

IL-2 [1] = assay: IL-2 expression by ELISA in stimulated mouse splenocytes; assay type: cell-based; settings: Splenocyte, mouse splenocytes stimulated with anti-CD3+anti-CD28, 0 to 20 μM, read-out: IC50 of IL2 inhibition
Procedure: In yet another example, IL-2 expression was quantified by ELISA analysis. In these experiments, mouse splenocytes were stimulated with anti-CD3+anti-CD28, in the presence of varying doses of Rel inhibitors (from 0 to 20 μM).

DLBCL tumor cells = assay: DLBCL xenograft tumor model in NOD/SCID mice; assay type: in vivo, mouse
Procedure: Xenograft tumor models have been widely used to study human cancer. […] The experiment used non-obese diabetic (NOD)/SCID mice for testing Rel inhibitor analogs.
Male NOD/SCID mice were injected with 3-5×10^6 of DLBCL tumor cells subcutaneously in each flank area. When tumors were palpable (˜12 days after injection), the mice were randomized to receive either vehicle or test compounds corresponding to Rel inhibitors of the invention. In some experiments, DHMEQ was used as a benchmark compound. Compounds were administrated via i.p. at 12 to 24 mg/kg, three days per week for 2-3 weeks. Tumor volume was measured twice a week.

MM1-144 cells = assay: Tumor cell cytotoxicity assay, multiple myeloma cell line MM1-144; assay type: cell-based; settings: MM1-144 cells (use both pathways), 48 hours
Procedure: as §2, §3

IL-2 [2] = assay: IL-2 expression, intracellular cytokine staining and flow cytometry in CD4+ T cells; assay type: cell-based, mouse or human; settings: anti-CD3+anti-CD28 for 6 hours, % cytokine-expressing CD4+ T cells; data not shown
Procedure: as §1

DLBCL tumor cell lines = assay: DLBCL cytotoxicity assay; assay type: cell-based; settings: read-out: IC50 on DLBCL cytotoxicity assay
Procedure: as §3
The IC50 was defined as the concentration that causes 50% cell death compared with control samples. […] In summary, tumor cell lines were utilized to select for Rel inhibitors with tumor cytoxicity activities. […] Those compounds with in vitro anti-tumor activity were further tested in vivo using xenograft tumor models.

EAE = EAE model (multiple sclerosis) in C57BL/6 mice; assay type: in vivo, mouse
Procedure: As an example, C57BL/6 mice were immunized to induce EAE with 1) a subcutaneous injection on flanks of […] MOG38-50 peptide in 0.1 ml PBS emulsified in an equal volume of complete Freund's adjuvant containing […] mycobacterium tuberculosis H37RA, and 2) an intravenous injection of 100 ng pertussis toxin in 0.1 ml PBS. A second injection of pertussis toxin (100 ng per mouse) was given 48 hr later.
Mice were subsequently injected i.p. with 300 μg BA-039 (n=4) or vehicle (n=3) daily beginning with the first day of EAE onset. Mice were monitored daily for disease score up to 16 days.
In a second set of this experiment, treatment of the mice was stopped on the 16th day of the study and further monitored for additional 22 days. […] By contrast, the BA-039 treated group remained devoid of disease (average clinical score 1-2) (data not shown, manuscript in preparation). […] The data provide important information about treatment regimen with Rel inhibitors for multiple sclerosis patients in the future.

**Q.** `COc1ccc(C=C2C(=O)NC(=S)NC2=O)c(OC)c1` [BA-001, 5-(2,4-dimethoxybenzylidene)-2-thioxodihydro-pyrimidine-4,6(1H,5H)-dione] was tested. Which pIC50 (IFN-γ) did it give?
**A.** Its pIC50 is about 5.22.

**Q.** What about the pIC50 (TNF) of the same molecule?
**A.** Its pIC50 is about 5.22.

**Q.** And the “inhibitory effect toward non-c-Rel target genes (e.g. CD69)” value (CD69)?
**A.** Its value is “no inhibitory effects”.

**Q.** And the “growth inhibition (cell numbers as percentage of control group)” value (L363 cells)?
**A.** Its value is “dose-dependent apoptosis”.

**Q.** What about the “growth inhibition (cell numbers as percentage of control group)” value (RPMI8226 cells) of the same molecule?
**A.** The value was “quite resistant”.

**Q.** And the “resistance to STZ-induced diabetes (glucose level)” value (STZ-induced diabetes)?
**A.** Its value is “resistant to STZ-induced diabetes”.

**Q.** What about the pIC50 (IL-2 [1]) of the same molecule?
**A.** The pIC50 was 4.82.

**Q.** What about the “tumor growth compared to vehicle controls” value (DLBCL tumor cells; 24 mg/Kg i.p., three days per week, NOD/SCID mice) of the same molecule?
**A.** Its value is “slowed the tumor growth”.

**Q.** What about the “anti-tumor potency compared with DHMEQ” value (DLBCL tumor cells; both 12 to 24 mg/kg doses, DLBCL xenograft mouse model) of the same molecule?
**A.** Its value is “much better potency than DHMEQ”.

**Q.** And the “growth inhibition (cell numbers as percentage of control group)” value (MM1-144 cells)?
**A.** The value was “only partially inhibited”.

**Q.** What about the pIC50 (IL-2 [2]) of the same molecule?
**A.** The pIC50 was about 5.22.

**Q.** With `COc1ccc(C=C2C(=O)NC(=O)NC2=O)c2ccccc12` [BA-009, 5-((4-methoxynaphthalen-1-yl)methylene) pyrimidine-2,4,6(1H,3H,5H)-trione] as the molecule, how does the “tumor volume compared to vehicle controls” value (DLBCL tumor cells; 15 mg/kg i.p., three days per week, NOD/SCID mice) read?
**A.** The value was “significantly smaller tumor volume”.

**Q.** What does the source list for `COc1ccc(N2C(=O)/C(=C\c3c(OC)ccc4ccccc34)C(=O)NC2=S)cc1` [BA-030, 5-((2-methoxynaphthalen-1-yl)methylene)-1-(4-methoxyphenyl)-2-thioxodihydro-pyrimidine-4,6(1H,5H)-dione]?
**A.** pIC50 (DLBCL tumor cell lines): 5.40; pIC50 (IL-2 [1]): 6.40

**Q.** How did the disease score (EAE; 300 μg i.p. daily from first day of EAE onset, up to 16 days, reduced from 2, vehicle rises 2 to 5) turn out when `COc1cc(OC)c2ccccc2c1C=C1C(=O)NC(=S)NC1=O` [BA-039, 5-((2,4-dimethoxynaphthalen-1-yl)methylene)-2-thioxodihydropyrimidine-4,6(1H,5H)-dione] was run?
**A.** Its disease score is 1.

**Q.** And the average clinical score (EAE; 22 days after treatment stopped on 16th day, control group score 5)?
**A.** The average clinical score was 1-2.
